From patent US12570675B2, “Boronic acid compounds” (LG CHEM, LTD., priority 2020, dated 2026)
pIC50: −log10 of the molar value.

Biological target: Proteasome chymotrypsin-like activity (S26 protein from RPMI8226 cells) (Homo sapiens, UniProt P28074)
Format: biochemical
Conditions: S26 protein from RPMI8226 cell extract 2 ug/well, substrate 20 uM, 37° C., 90 minutes; read-out: Proteasome chymotrypsin-like activity inhibition IC50
Summary of the method: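 Inhibition is measured in crude proteasome (S26) from RPMI8226 cells at 2 ug/well, using 20 uM substrate specific to each activity: Suc-LLVY-AMC for chymotrypsin-like, Z-LLE-AMC for caspase-like. Compounds span a dilution series from 10 uM.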

Chain of Proteasome chymotrypsin-like activity (S26 protein from RPMI8226 cells) (P28074 60-263 limits assumed): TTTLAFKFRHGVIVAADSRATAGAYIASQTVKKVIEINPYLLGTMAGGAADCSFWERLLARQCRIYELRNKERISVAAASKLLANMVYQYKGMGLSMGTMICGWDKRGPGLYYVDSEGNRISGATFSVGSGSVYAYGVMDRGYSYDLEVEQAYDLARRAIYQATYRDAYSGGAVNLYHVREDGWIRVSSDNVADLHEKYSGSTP

Row | pIC50 | SMILES
1 | > 8.00 | Cc1ncc(C(=O)NCC2=NOC(Cc3ccccc3)(C(=O)N[C@@H](CC(C)C)B(O)O)C2)s1 (stereo partly drawn) [Example 235, ((1R)-1-(5-benzyl-3-((2-methylthiazol-5-carboxamido)methyl)-4,5-dihydroisoxazol-5-carboxamido)-3-methylbutyl)boronic acid]
2 | > 8.00 | Cc1cccc(CC2(C(=O)N[C@@H](CC(C)C)B(O)O)CC(CNC(=O)c3cc(-c4ccccc4)nn3C(C)C)=NO2)c1 (stereo partly drawn) [Example 236, ((1R)-1-(3-((1-isopropyl-3-phenyl-1H-pyrazol-5-carboxamido)methyl)-5-(3-methylbenzyl)-4,5-dihydroisoxazol-5-carboxamido)-3-methylbutyl)boronic acid]
3 | > 8.00 | Cc1cccc(CC2(C(=O)N[C@@H](CC(C)C)B(O)O)CC(CNC(=O)c3cc(C(C)(C)C)nn3C(C)C)=NO2)c1 (stereo partly drawn) [Example 237, ((1R)-1-(3-((3-(tert-butyl)-1-isopropyl-1H-pyrazol-5-carboxamido)methyl)-5-(3-methylbenzyl)-4,5-dihydroisoxazol-5-carboxamido)-3-methylbutyl)boronic acid]
4 | > 8.00 | Cc1cccc(CC2(C(=O)N[C@@H](CC(C)C)B(O)O)CC(CNC(=O)c3cccn4ccnc34)=NO2)c1 (stereo partly drawn) [Example 238, ((1R)-1-(3-((imidazo[1,2-a]pyridin-8-carboxamido)methyl)-5-(3-methylbenzyl)-4,5-dihydroisoxazol-5-carboxamido)-3-methylbutyl)boronic acid]
5 | > 8.00 | COc1cccc(CC2(C(=O)N[C@@H](CC(C)C)B(O)O)CC(CNC(=O)c3ccnn3C(C)C)=NO2)c1 (stereo partly drawn) [Example 239, ((1R)-1-(3-((1-isopropyl-1H-pyrazol-5-carboxamido)methyl)-5-(3-methoxybenzyl)-4,5-dihydroisoxazol-5-carboxamido)-3-methylbutyl)boronic acid]
6 | > 8.00 | COc1cccc(CC2(C(=O)N[C@@H](CC(C)C)B(O)O)CC(CNC(=O)c3cc(C)nn3C3CCCC3)=NO2)c1 (stereo partly drawn) [Example 240, ((1R)-1-(3-((1-cyclopentyl-3-methyl-1H-pyrazol-5-carboxamido)methyl)-5-(3-methoxybenzyl)-4,5-dihydroisoxazol-5-carboxamido)-3-methylbutyl)boronic acid]
7 | > 8.00 | COc1cccc(CC2(C(=O)N[C@@H](CC(C)C)B(O)O)CC(CNC(=O)c3cc(-c4ccccn4)nn3C(C)C)=NO2)c1 (stereo partly drawn) [Example 241, ((1R)-1-(3-((1-isopropyl-3-(pyridin-2-yl)-1H-pyrazol-5-carboxamido)methyl)-5-(3-methoxybenzyl)-4,5-dihydroisoxazol-5-carboxamido)-3-methylbutyl)boronic acid]
8 | > 8.00 | Cc1cccc(CC2(C(=O)N[C@@H](CC(C)C)B(O)O)CC(CNC(=O)c3ccnn3C(C)C)=NO2)c1 (stereo partly drawn) [Example 242, ((1R)-1-(3-((1-isopropyl-1H-pyrazol-5-carboxamido)methyl)-5-(3-methylbenzyl)-4,5-dihydroisoxazol-5-carboxamido)-3-methylbutyl)boronic acid]
9 | > 8.00 | Cc1cccc(CC2(C(=O)N[C@@H](CC(C)C)B(O)O)CC(CNC(=O)c3cc(C)nn3C3CCCC3)=NO2)c1 (stereo partly drawn) [Example 243, ((1R)-1-(3-((1-cyclopentyl-3-methyl-1H-pyrazol-5-carboxamido)methyl)-5-(3-methylbenzyl)-4,5-dihydroisoxazol-5-carboxamido)-3-methylbutyl)boronic acid]
10 | > 8.00 | Cc1cccc(CC2(C(=O)N[C@@H](CC(C)C)B(O)O)CC(CNC(=O)c3c(Cl)c(C)nn3C(C)C)=NO2)c1 (stereo partly drawn) [Example 244, ((1R)-1-(3-((4-chloro-1-isopropyl-3-methyl-1H-pyrazol-5-carboxamido)methyl)-5-(3-methylbenzyl)-4,5-dihydroisoxazol-5-carboxamido)-3-methylbutyl)boronic acid]
11 | > 8.00 | Cc1cccc(CC2(C(=O)N[C@@H](CC(C)C)B(O)O)CC(CNC(=O)c3cc(-c4ccccn4)nn3C(C)C)=NO2)c1 (stereo partly drawn) [Example 245, ((1R)-1-(3-((1-isopropyl-3-(pyridin-2-yl)-1H-pyrazol-5-carboxamido)methyl)-5-(3-methylbenzyl)-4,5-dihydroisoxazol-5-carboxamido)-3-methylbutyl)boronic acid]
12 | > 8.00 | Cc1nn(C(C)C)c(C(=O)NCC2=NOC(Cc3cccc(Cl)c3)(C(=O)N[C@@H](CC(C)C)B(O)O)C2)c1Cl (stereo partly drawn) [Example 248, ((1R)-1-(3-((4-chloro-1-isopropyl-3-methyl-1H-pyrazol-5-carboxamido)methyl)-5-(3-chlorobenzyl)-4,5-dihydroisoxazol-5-carboxamido)-3-methylbutyl)boronic acid]
13 | > 8.00 | CC(C)C[C@H](NC(=O)C1(Cc2cccc(Cl)c2)CC(CNC(=O)c2cc(-c3ccccc3)nn2C(C)C)=NO1)B(O)O (stereo partly drawn) [Example 249, ((1R)-1-(5-(3-chlorobenzyl)-3-((1-isopropyl-3-phenyl-1H-pyrazol-5-carboxamido)methyl)-4,5-dihydroisoxazol-5-carboxamido)-3-methylbutyl)boronic acid]
14 | > 8.00 | CC(C)C[C@H](NC(=O)C1(Cc2cccc(Cl)c2)CC(CNC(=O)c2ccnn2C(C)C)=NO1)B(O)O (stereo partly drawn) [Example 250, ((1R)-1-(5-(3-chlorobenzyl)-3-((1-isopropyl-1H-pyrazol-5-carboxamido)methyl)-4,5-dihydroisoxazol-5-carboxamido)-3-methylbutyl)boronic acid]
15 | > 8.00 | Cc1cccc(CC2(C(=O)N[C@@H](CC(C)C)B(O)O)CC(CNC(=O)c3cc(C)nn3C3CCOCC3)=NO2)c1 (stereo partly drawn) [Example 251, ((1R)-3-methyl-1-(3-((3-methyl-1-(tetrahydro-2H-pyran-4-yl)-1H-pyrazol-5-carboxamido)methyl)-5-(3-methylbenzyl)-4,5-dihydroisoxazol-5-carboxamido)butyl)boronic acid]
16 | > 8.00 | CC(C)C[C@H](NC(=O)C1(Cc2ccccc2)CC(CCNC(=O)c2nccc3ccccc23)=NO1)B(O)O (some centres unmarked) [Example 253]
17 | > 8.00 | CC(C)C[C@H](NC(=O)C1(Cc2ccccc2)CC(COc2ccccc2)=NO1)B(O)O (some centres unmarked) [Example 254]
18 | > 7.60 | O=C(N[C@@H](Cc1ccccc1)B(O)O)C1(Cc2ccccc2)CC(COc2ccccc2)=NO1 (stereo partly drawn) [Example 255, ((1R)-1-(5-benzyl-3-(phenoxymethyl)-4,5-dihydroisoxazol-5-carboxamido)-2-phenylethyl)boronic acid]

Row | pIC50 | SMILES
19 | > 8.00 | CC(C)C[C@H](NC(=O)C1(Cc2ccccc2)CC(COc2cccc(Cl)c2)=NO1)B(O)O (some centres unmarked) [Example 258]
20 | > 7.30 | O=C(N[C@@H](Cc1ccccc1)B(O)O)C1(Cc2ccccc2)CC(COc2cccc(Cl)c2)=NO1 (stereo partly drawn) [Example 259, ((1R)-1-(5-benzyl-3-((3-chlorophenoxy)methyl)-4,5-dihydroisoxazol-5-carboxamido)-2-phenylethyl)boronic acid]
21 | > 7.30 | CC(C)C[C@H](NC(=O)C1(Cc2ccccc2)CC(COCc2cccc(Cl)c2)=NO1)B(O)O (some centres unmarked) [Example 260]
22 | > 7.60 | O=C(N[C@@H](Cc1ccccc1)B(O)O)C1(Cc2ccccc2)CC(COCc2cccc(Cl)c2)=NO1 (stereo partly drawn) [Example 261, ((1R)-1-(5-benzyl-3-(((3-chlorobenzyl)oxy)methyl)-4,5-dihydroisoxazol-5-carboxamido)-2-phenylethyl)boronic acid]
23 | > 7.00 | CC(C)C[C@H](NC(=O)C1(Cc2ccccc2)CC(COc2ccc3ccccc3c2)=NO1)B(O)O (some centres unmarked) [Example 262]
24 | > 7.30 | O=C(N[C@@H](Cc1ccccc1)B(O)O)C1(Cc2ccccc2)CC(COc2ccc3ccccc3c2)=NO1 (stereo partly drawn) [Example 263, ((1R)-1-(5-benzyl-3-((naphthalen-2-yloxy)methyl)-4,5-dihydroisoxazol-5-carboxamido)-2-phenylethyl)boronic acid]
25 | > 8.00 | CC(C)C[C@H](NC(=O)C1(Cc2ccccc2)CC(COCc2cccc(C#N)c2)=NO1)B(O)O (some centres unmarked) [Example 264]
26 | > 8.00 | N#Cc1cccc(COCC2=NOC(Cc3ccccc3)(C(=O)N[C@@H](Cc3ccccc3)B(O)O)C2)c1 (stereo partly drawn) [Example 265, ((1R)-1-(5-benzyl-3-(((3-cyanobenzyl)oxy)methyl)-4,5-dihydroisoxazol-5-carboxamido)-2-phenylethyl)boronic acid]
27 | > 8.00 | CC(C)C[C@H](NC(=O)C1(Cc2ccccc2)CC(COCc2cccn3ccnc23)=NO1)B(O)O (some centres unmarked) [Example 266]
28 | > 8.00 | O=C(N[C@@H](Cc1ccccc1)B(O)O)C1(Cc2ccccc2)CC(COCc2cccn3ccnc23)=NO1 (stereo partly drawn) [Example 267, ((1R)-1-(5-benzyl-3-((imidazo[1,2-a]pyridin-8-ylmethoxy)methyl)-4,5-dihydroisoxazol-5-carboxamido)-2-phenylethyl)boronic acid]
29 | > 8.00 | CC(C)C[C@H](NC(=O)C1(Cc2ccccc2)CC(COCc2ccccn2)=NO1)B(O)O (some centres unmarked) [Example 268]
30 | > 7.60 | O=C(N[C@@H](Cc1ccccc1)B(O)O)C1(Cc2ccccc2)CC(COCc2ccccn2)=NO1 (stereo partly drawn) [Example 269, ((1R)-1-(5-benzyl-3-((pyridin-2-ylmethoxy)methyl)-4,5-dihydroisoxazol-5-carboxamido)-2-phenylethyl)boronic acid]
31 | > 8.00 | Cc1cccc(COCC2=NOC(Cc3ccccc3)(C(=O)N[C@@H](CC(C)C)B(O)O)C2)c1 (some centres unmarked) [Example 270]
32 | > 8.00 | Cc1cccc(COCC2=NOC(Cc3ccccc3)(C(=O)N[C@@H](Cc3ccccc3)B(O)O)C2)c1 (stereo partly drawn) [Example 271, ((1R)-1-(5-benzyl-3-(((3-methylbenzyl)oxy)methyl)-4,5-dihydroisoxazol-5-carboxamido)-2-phenylethyl)boronic acid]
33 | > 8.00 | COc1cccc(COCC2=NOC(Cc3ccccc3)(C(=O)N[C@@H](CC(C)C)B(O)O)C2)c1 (some centres unmarked) [Example 272]
34 | > 8.00 | COc1cccc(COCC2=NOC(Cc3ccccc3)(C(=O)N[C@@H](Cc3ccccc3)B(O)O)C2)c1 (stereo partly drawn) [Example 273, ((1R)-1-(5-benzyl-3-(((3-methoxybenzyl)oxy)methyl)-4,5-dihydroisoxazol-5-carboxamido)-2-phenylethyl)boronic acid]
35 | > 7.00 | COc1ccc(COCC2=NOC(Cc3ccccc3)(C(=O)N[C@@H](CC(C)C)B(O)O)C2)cc1 (some centres unmarked) [Example 274]
